What was measured:
Assay in all cases: Off-target kinase profiling (KinaseProfiler)
Type in all cases: biochemical
Conditions in all cases: 10 μM, ATP near Km
AKT2 = biological target: T1, AKT2 (Homo sapiens, UniProt P31751)
T1 construct: purchased Millipore, Inc. (KinaseProfiler service)
Procedure, shortened: (§1)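 Single-point screen at 10 μM compound, run in duplicate with ATP near the Km of each kinase. Activity is expressed as percent of control (POC), averaged across both replicates.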

Abl2 = biological target: T2, Abl2 (Homo sapiens, UniProt P42684)
T2 construct: purchased Millipore, Inc. (KinaseProfiler service)
Procedure, shortened: as §1

BTK = biological target: T3, BTK (Homo sapiens, UniProt Q06187)
T3 construct: purchased Millipore, Inc. (KinaseProfiler service)
Procedure, shortened: as §1

BrSK2 = biological target: T4, BrSK2 (Homo sapiens, UniProt Q8IWQ3)
T4 construct: purchased Millipore, Inc. (KinaseProfiler service)
Procedure, shortened: as §1

CAMK4 = biological target: T5, CAMK4 (Homo sapiens, UniProt Q16566)
T5 construct: purchased Millipore, Inc. (KinaseProfiler service)
Procedure, shortened: as §1

CDK1/cyclinB = biological target: T6, CDK1/cyclinB (Homo sapiens, UniProt P06493)
T6 construct: purchased Millipore, Inc. (KinaseProfiler service)
Procedure, shortened: as §1

CDK9/cyclinT1 = biological target: T7, CDK9/cyclinT1 (Homo sapiens, UniProt P50750)
T7 construct: purchased Millipore, Inc. (KinaseProfiler service)
Procedure, shortened: as §1

CHK2 = biological target: T8, CHK2 (Homo sapiens, UniProt O96017)
T8 construct: purchased Millipore, Inc. (KinaseProfiler service)
Procedure, shortened: as §1

CK1_y = system: CK1_y
Procedure, shortened: as §1

CK1gamma1 = biological target: T9, CK1gamma1 (Homo sapiens, UniProt Q9HCP0)
T9 construct: purchased Millipore, Inc. (KinaseProfiler service)
Procedure, shortened: as §1

DMPK = biological target: T10, DMPK (Homo sapiens, UniProt Q09013)
T10 construct: purchased Millipore, Inc. (KinaseProfiler service)
Procedure, shortened: as §1

EphA1 = biological target: T11, EphA1 (Homo sapiens, UniProt P21709)
T11 construct: purchased Millipore, Inc. (KinaseProfiler service)
Procedure, shortened: as §1

EphA2 = biological target: T12, EphA2 (Homo sapiens, UniProt P29317)
T12 construct: purchased Millipore, Inc. (KinaseProfiler service)
Procedure, shortened: as §1

EphA4 = biological target: T13, EphA4 (Homo sapiens, UniProt P54764)
T13 construct: purchased Millipore, Inc. (KinaseProfiler service)
Procedure, shortened: as §1

EphA5 = biological target: T14, EphA5 (Homo sapiens, UniProt P54756)
T14 construct: purchased Millipore, Inc. (KinaseProfiler service)
Procedure, shortened: as §1

Fer = biological target: T15, Fer (Homo sapiens, UniProt P16591)
T15 construct: purchased Millipore, Inc. (KinaseProfiler service)
Procedure, shortened: as §1

Fms = biological target: T16, Fms (Homo sapiens, UniProt P07333)
T16 construct: purchased Millipore, Inc. (KinaseProfiler service)
Procedure, shortened: as §1

GRK5 = biological target: T17, GRK5 (Homo sapiens, UniProt P34947)
T17 construct: purchased Millipore, Inc. (KinaseProfiler service)
Procedure, shortened: as §1

Haspin = biological target: T18, Haspin (Homo sapiens, UniProt Q8TF76)
T18 construct: purchased Millipore, Inc. (KinaseProfiler service)
Procedure, shortened: as §1

IKKalpha = biological target: T19, IKKalpha (Homo sapiens, UniProt O15111)
T19 construct: purchased Millipore, Inc. (KinaseProfiler service)
Procedure, shortened: as §1

JAK2 = biological target: T20, JAK2 (Homo sapiens, UniProt O60674)
T20 construct: purchased Millipore, Inc. (KinaseProfiler service)
Procedure, shortened: as §1

JAK3 = biological target: T21, JAK3 (Homo sapiens, UniProt P52333)
T21 construct: purchased Millipore, Inc. (KinaseProfiler service)
Procedure, shortened: as §1

Lck = biological target: T22, Lck (Homo sapiens, UniProt P06239)
T22 construct: purchased Millipore, Inc. (KinaseProfiler service)
Procedure, shortened: as §1

MINK = biological target: T23, MINK (Homo sapiens, UniProt Q8N4C8)
T23 construct: purchased Millipore, Inc. (KinaseProfiler service)
Procedure, shortened: as §1

MSK2 = biological target: T24, MSK2 (Homo sapiens, UniProt O75676)
T24 construct: purchased Millipore, Inc. (KinaseProfiler service)
Procedure, shortened: as §1

MSSK1 = biological target: T25, MSSK1 (Homo sapiens, UniProt Q9UPE1)
T25 construct: purchased Millipore, Inc. (KinaseProfiler service)
Procedure, shortened: as §1

MuSK = biological target: T26, MuSK (Homo sapiens, UniProt O15146)
T26 construct: purchased Millipore, Inc. (KinaseProfiler service)
Procedure, shortened: as §1

NEK2 = biological target: T27, NEK2 (Homo sapiens, UniProt P51955)
T27 construct: purchased Millipore, Inc. (KinaseProfiler service)
Procedure, shortened: as §1

NEK7 = biological target: T28, NEK7 (Homo sapiens, UniProt Q8TDX7)
T28 construct: purchased Millipore, Inc. (KinaseProfiler service)
Procedure, shortened: as §1

PAK2 = biological target: T29, PAK2 (Homo sapiens, UniProt Q13177)
T29 construct: purchased Millipore, Inc. (KinaseProfiler service)
Procedure, shortened: as §1

PDK1 = biological target: T30, PDK1 (Homo sapiens, UniProt O15530)
T30 construct: purchased Millipore, Inc. (KinaseProfiler service)
Procedure, shortened: as §1

PKCiota = biological target: T31, PKCiota (Homo sapiens, UniProt P41743)
T31 construct: purchased Millipore, Inc. (KinaseProfiler service)
Procedure, shortened: as §1

PKCzeta = biological target: T32, PKCzeta (Homo sapiens, UniProt Q05513)
T32 construct: purchased Millipore, Inc. (KinaseProfiler service)
Procedure, shortened: as §1

Pim-3 = biological target: T33, Pim-3 (Homo sapiens, UniProt Q86V86)
T33 construct: purchased Millipore, Inc. (KinaseProfiler service)
Procedure, shortened: as §1

Plk1 = biological target: T34, Plk1 (Homo sapiens, UniProt P53350)
T34 construct: purchased Millipore, Inc. (KinaseProfiler service)
Procedure, shortened: as §1

Plk2 = biological target: T35, Plk2 (Homo sapiens, UniProt Q9NYY3)
T35 construct: purchased Millipore, Inc. (KinaseProfiler service)
Procedure, shortened: as §1

Ron = biological target: T36, Ron (Homo sapiens, UniProt Q04912)
T36 construct: purchased Millipore, Inc. (KinaseProfiler service)
Procedure, shortened: as §1

Rse = biological target: T37, Rse (Homo sapiens, UniProt Q06418)
T37 construct: purchased Millipore, Inc. (KinaseProfiler service)
Procedure, shortened: as §1

SGK2 = biological target: T38, SGK2 (Homo sapiens, UniProt Q9HBY8)
T38 construct: purchased Millipore, Inc. (KinaseProfiler service)
Procedure, shortened: as §1

ULK3 = biological target: T39, ULK3 (Homo sapiens, UniProt Q6PHR2)
T39 construct: purchased Millipore, Inc. (KinaseProfiler service)
Procedure, shortened: as §1

mTOR/FKBP12 = biological target: T40, mTOR/FKBP12 (Homo sapiens, UniProt P42345)
T40 construct: purchased Millipore, Inc. (KinaseProfiler service)
Procedure, shortened: as §1

p38gamma = biological target: T41, p38gamma (Homo sapiens, UniProt P53778)
T41 construct: purchased Millipore, Inc. (KinaseProfiler service)
Procedure, shortened: as §1

T36 sequence (Q04912 25-1400): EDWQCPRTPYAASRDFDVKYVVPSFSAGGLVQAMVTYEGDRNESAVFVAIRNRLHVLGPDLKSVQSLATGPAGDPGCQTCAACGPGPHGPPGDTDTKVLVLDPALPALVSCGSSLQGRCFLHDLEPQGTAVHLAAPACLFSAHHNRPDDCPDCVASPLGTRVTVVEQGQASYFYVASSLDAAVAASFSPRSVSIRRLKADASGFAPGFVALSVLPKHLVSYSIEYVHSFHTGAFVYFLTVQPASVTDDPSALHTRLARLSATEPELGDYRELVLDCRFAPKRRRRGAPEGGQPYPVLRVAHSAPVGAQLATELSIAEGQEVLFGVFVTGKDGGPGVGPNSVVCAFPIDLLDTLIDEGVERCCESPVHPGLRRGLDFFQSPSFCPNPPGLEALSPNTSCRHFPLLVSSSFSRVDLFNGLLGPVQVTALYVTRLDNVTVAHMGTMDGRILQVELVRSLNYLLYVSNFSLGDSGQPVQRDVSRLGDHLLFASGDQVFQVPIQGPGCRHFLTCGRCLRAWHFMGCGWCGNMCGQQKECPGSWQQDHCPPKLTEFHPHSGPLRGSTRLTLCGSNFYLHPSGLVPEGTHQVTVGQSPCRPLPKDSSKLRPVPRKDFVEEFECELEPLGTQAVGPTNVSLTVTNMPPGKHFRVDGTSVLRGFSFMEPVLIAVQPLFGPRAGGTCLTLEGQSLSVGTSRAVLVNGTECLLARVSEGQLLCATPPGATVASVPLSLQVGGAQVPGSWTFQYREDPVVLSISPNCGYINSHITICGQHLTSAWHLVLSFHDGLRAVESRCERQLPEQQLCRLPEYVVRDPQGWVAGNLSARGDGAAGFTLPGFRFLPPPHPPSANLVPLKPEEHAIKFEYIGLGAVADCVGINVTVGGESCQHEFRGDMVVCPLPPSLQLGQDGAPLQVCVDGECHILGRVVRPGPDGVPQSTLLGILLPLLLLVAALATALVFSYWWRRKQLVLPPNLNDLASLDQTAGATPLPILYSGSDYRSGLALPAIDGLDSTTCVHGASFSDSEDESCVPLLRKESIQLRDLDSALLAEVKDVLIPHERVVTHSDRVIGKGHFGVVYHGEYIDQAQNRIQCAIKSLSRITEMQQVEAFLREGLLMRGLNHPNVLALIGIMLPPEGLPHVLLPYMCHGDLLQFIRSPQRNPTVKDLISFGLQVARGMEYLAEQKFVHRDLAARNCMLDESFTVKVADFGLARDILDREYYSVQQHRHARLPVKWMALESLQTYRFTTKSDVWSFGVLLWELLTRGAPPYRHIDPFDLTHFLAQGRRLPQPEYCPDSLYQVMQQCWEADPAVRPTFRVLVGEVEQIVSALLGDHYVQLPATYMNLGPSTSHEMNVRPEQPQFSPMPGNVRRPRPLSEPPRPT
T35 sequence (Q9NYY3 whole entry): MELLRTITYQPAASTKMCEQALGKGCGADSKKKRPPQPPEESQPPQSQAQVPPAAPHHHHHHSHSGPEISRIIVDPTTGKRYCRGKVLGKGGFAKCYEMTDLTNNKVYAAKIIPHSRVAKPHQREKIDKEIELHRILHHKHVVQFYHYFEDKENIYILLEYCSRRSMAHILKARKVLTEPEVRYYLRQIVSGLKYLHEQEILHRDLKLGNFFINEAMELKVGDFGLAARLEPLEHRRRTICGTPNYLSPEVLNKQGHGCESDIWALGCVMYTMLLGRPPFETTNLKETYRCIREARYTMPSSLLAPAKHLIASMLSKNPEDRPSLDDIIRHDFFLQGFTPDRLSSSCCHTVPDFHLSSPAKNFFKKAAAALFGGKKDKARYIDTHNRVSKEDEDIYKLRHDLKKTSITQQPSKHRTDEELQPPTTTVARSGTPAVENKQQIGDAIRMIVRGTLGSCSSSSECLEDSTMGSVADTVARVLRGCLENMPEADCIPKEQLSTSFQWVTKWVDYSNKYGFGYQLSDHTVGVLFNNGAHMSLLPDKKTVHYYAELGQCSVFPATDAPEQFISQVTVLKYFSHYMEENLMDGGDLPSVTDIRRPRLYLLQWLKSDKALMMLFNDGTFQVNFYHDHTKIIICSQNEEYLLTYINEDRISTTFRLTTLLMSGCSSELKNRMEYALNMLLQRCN
T29 sequence (Q13177 whole entry): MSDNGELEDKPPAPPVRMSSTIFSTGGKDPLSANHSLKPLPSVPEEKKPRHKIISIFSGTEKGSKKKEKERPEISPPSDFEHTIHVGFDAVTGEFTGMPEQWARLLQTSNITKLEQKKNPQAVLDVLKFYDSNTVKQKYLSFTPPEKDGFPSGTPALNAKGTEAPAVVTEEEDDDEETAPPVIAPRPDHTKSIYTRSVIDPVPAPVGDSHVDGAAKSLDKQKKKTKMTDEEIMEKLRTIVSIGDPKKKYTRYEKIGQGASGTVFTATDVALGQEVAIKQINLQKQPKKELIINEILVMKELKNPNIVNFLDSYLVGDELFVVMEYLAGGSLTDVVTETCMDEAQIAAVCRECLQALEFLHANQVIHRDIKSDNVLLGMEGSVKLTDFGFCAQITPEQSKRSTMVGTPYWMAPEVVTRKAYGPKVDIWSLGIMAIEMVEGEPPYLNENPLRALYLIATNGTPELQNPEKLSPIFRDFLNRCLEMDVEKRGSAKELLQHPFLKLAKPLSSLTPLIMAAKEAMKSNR
T37 sequence (Q06418 41-890): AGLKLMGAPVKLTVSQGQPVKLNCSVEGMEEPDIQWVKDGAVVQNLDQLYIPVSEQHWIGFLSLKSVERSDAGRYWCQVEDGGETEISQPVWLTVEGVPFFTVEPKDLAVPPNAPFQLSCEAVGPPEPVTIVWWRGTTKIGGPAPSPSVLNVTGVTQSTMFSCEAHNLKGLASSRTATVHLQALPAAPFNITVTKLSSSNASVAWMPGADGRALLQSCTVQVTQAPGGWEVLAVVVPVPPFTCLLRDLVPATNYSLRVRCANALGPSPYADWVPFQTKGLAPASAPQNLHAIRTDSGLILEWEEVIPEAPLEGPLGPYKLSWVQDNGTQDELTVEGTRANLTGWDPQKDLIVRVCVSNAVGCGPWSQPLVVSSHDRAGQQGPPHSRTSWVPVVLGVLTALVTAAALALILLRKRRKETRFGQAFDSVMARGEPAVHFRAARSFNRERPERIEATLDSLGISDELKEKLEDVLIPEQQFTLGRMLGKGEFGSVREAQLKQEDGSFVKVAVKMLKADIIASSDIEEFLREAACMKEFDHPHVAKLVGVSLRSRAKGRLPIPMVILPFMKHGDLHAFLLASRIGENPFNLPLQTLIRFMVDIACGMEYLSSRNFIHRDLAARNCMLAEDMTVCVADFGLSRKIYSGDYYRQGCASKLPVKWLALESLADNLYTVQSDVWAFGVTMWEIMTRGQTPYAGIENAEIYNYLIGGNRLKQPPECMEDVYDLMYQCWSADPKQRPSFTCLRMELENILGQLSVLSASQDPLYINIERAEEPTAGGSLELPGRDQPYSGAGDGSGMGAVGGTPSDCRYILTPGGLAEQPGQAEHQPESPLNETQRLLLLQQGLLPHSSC
T10 sequence (Q09013 whole entry): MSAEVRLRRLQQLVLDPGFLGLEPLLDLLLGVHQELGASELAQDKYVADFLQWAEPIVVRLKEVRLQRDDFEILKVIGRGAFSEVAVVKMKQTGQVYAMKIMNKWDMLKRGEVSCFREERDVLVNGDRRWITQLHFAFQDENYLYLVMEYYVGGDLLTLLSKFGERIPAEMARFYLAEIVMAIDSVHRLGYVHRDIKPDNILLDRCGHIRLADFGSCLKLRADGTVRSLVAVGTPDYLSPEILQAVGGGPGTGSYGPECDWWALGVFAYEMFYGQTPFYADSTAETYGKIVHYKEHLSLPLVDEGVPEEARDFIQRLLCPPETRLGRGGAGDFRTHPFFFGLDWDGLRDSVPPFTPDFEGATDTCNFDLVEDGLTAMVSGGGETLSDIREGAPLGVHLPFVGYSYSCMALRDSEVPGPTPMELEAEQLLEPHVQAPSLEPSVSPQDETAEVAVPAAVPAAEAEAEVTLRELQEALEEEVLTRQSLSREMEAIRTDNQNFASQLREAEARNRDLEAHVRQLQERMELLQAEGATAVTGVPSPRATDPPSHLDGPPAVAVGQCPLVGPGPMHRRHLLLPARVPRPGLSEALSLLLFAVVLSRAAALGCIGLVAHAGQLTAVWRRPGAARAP
T34 sequence (P53350 whole entry): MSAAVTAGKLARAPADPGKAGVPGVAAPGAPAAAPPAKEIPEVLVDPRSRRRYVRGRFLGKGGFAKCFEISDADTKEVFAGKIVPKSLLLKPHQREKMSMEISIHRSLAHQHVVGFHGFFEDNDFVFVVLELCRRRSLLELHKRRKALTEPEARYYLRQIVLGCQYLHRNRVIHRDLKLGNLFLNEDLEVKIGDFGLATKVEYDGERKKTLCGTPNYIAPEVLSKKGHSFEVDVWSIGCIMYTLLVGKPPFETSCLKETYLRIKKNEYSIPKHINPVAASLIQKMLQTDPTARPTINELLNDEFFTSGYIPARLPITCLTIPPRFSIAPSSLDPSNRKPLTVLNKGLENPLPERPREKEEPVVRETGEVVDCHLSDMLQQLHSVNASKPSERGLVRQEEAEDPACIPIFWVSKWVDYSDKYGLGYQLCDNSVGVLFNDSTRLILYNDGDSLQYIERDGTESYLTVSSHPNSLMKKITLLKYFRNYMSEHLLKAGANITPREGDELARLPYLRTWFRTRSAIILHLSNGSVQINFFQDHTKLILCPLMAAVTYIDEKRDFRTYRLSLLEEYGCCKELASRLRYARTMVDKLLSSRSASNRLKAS
T28 sequence (Q8TDX7 whole entry): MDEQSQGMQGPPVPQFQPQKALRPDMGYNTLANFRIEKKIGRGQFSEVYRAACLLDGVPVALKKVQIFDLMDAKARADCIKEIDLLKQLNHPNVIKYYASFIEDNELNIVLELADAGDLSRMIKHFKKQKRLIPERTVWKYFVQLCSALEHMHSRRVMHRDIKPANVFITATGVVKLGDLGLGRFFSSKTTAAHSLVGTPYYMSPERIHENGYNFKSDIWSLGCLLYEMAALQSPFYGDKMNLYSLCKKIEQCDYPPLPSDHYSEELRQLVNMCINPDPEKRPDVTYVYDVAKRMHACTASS

## COCc1ccc2cccc(NC(=O)Nc3c(C)c(-c4cnn(C)c4)nn3-c3ccccc3)c2c1 [Example 16, 1-(1′,4-dimethyl-1-phenyl-1H,1′H-[3,4′-bipyrazol]-5-yl)-3-(7-(methoxymethyl)naphthalen-1-yl)urea]
AKT2
  Avg POC: 217.5 POC
Abl2
  Avg POC: 119.5 POC
BTK
  Avg POC: 121.5 POC
BrSK2
  Avg POC: 143 POC
CAMK4
  Avg POC: 127 POC
CDK1/cyclinB
  Avg POC: 117.5 POC
CDK9/cyclinT1
  Avg POC: 114.5 POC
CHK2
  Avg POC: 110.5 POC
CK1_y
  Avg POC: 105 POC
CK1gamma1
  Avg POC: 115.5 POC
DMPK
  Avg POC: 110.5 POC
EphA1
  Avg POC: 104.5 POC
EphA2
  Avg POC: 123.5 POC
EphA4
  Avg POC: 100.5 POC
EphA5
  Avg POC: 118.5 POC
Fer
  Avg POC: 122 POC
Fms
  Avg POC: 125.5 POC
GRK5
  Avg POC: 108 POC
Haspin
  Avg POC: 137.5 POC
IKKalpha
  Avg POC: 138.5 POC
JAK2
  Avg POC: 181 POC
JAK3
  Avg POC: 131.5 POC
Lck
  Avg POC: 103 POC
MINK
  Avg POC: 118.5 POC
MSK2
  Avg POC: 107 POC
MSSK1
  Avg POC: 136.5 POC
MuSK
  Avg POC: 94 POC
NEK2
  Avg POC: 105.5 POC
NEK7
  Avg POC: 123 POC
PAK2
  Avg POC: 121 POC
PDK1
  Avg POC: 117.5 POC
PKCiota
  Avg POC: 109 POC
PKCzeta
  Avg POC: 123 POC
Pim-3
  Avg POC: 113.5 POC
Plk1
  Avg POC: 95 POC
Plk2
  Avg POC: 104.5 POC
Ron
  Avg POC: 117 POC
Rse
  Avg POC: 120.5 POC
SGK2
  Avg POC: 147.5 POC
ULK3
  Avg POC: 98.5 POC
mTOR/FKBP12
  Avg POC: 113 POC
p38gamma
  Avg POC: 116 POC
